According to EP0401096A1, “Agents and complexes of ion Mg++ facilitating absorption of magnesium in a human or animal organism, and pharmaceutical or dietetic compositions useful for the administration of magnesium in a human or animal organism” (LABORATOIRES LUCIEN, priority 1989, dated 1990):

What was measured:
[1] = Magnesium balance in rats after oral administration (experiment coded 1.33, 4 lots of 18); assay type: in vivo, rat; conditions: mean (M), experiment 1.33
Text: D'autres expérimentations basées sur des protocoles comparables ont confirmé les résultats ci-dessus. Elles ne feront pas toutefois l'objet d'une présentation en détails. Seuls les résultats de l'expérimentation suivante mettant en jeu l'acide malique et l'acide citrique seront présentés de façon globale dans les tableaux 10 et 11 ci-après.
La nouvelle expérimentation (codée 1.33) a été réalisée sur 4 lots de 18 animaux chacun, les lots I, II et III recevant les mêmes traitements que ceux administrés aux lots correspondants dans le cadre de l'expérimentation précédente et le lot IV recevant l'association "MgCl2 + acide citrique" à la dose de 38,88 mg de Mg2+/kg sous forme de MgCl2 + 1345 mg d'acide citrique/kg, sous un volume de 40 ml/kg d'eau déminéralisée (pH ajusté à 5), ce qui correspond à une concentration en magnésium CMg = 0,04 mol.dm-3 et à une concentration de citrate CTA = 0,16 mol.dm-3. Tableau 10

[2] = Magnesium balance in rats after oral administration (first experiment, 3 lots of 20); assay type: in vivo, rat; conditions: mean (M), oral 38,88 mg de Mg2+/kg
Experimental: L'essai porte sur 60 rats mâles S.P.F. de souche "CD", d'un poids moyen de 60 à 80 g à leur arrivée. Ils sont maintenus en animalerie conventionnelle dans des conditions identiques de température (21°C +/- 1°C), d'hygrométrie (40 à 70 %) et de luminosité (12h/24).
Dès leur arrivée, les animaux sont placés en cage à métabolisme et reçoivent un aliment contenant 570 mg de Mg2+/kg : concentration nécessaire et suffisante pour maintenir chez l'animal une magnésémie normale.
4 jours après leur arrivée, au temps "t-16h" de l'essai, soit 16 h avant l'administration des traitements (temps "t"), les animaux sont pesés, mis à jeun et le volume d'eau déminéralisée mis à leur disposition est exactement mesuré.
Au temps "t-1h" soit 1 h avant l'administration des traitements, l'eau de boisson est retirée. Elle est redistribuée 30 minutes après cette administration, le volume étant exactement mesuré.
Au temps "t+24h" les animaux sont sacrifiés par dislocation cervicale et le contenu de la vessie et des intestins est prélevé.
Les animaux sont répartis en 3 lots de 20 animaux chacun : • . Lot I : Témoins recevant 40 ml/kg d'eau déminéralisée; • . Lot II : Traités recevant 38,88 mg de Mg2+/kg sous forme de MgCl2, sous un volume de 40 ml/kg d'eau déminéralisée; • . Lot III : Traités recevant l'association "MgCl2 + acide malique" à la dose de 38,88 mg de Mg2+/kg sous forme de MgCl2 + 408 mg d'acide malique/kg, sous un volume de 40 ml/kg d'eau déminéralisée (pH ajusté à 5), ce qui correspond à une concentration en magnésium CMg = 0,04 mol.dm-3 et à une concentration de (DL)-malate CDLM = 0,076 mol.dm-3.
• a/ - Avant traitement : "t - 16 h" à "t" . Recueil des urines et mesure du volume. . Mesure de la consommation hydrique/15 h (les animaux étant privés d'eau de boisson 1 h avant l'administration des traitements). • b/ - Traitement : "t" . Pesée des animaux. . Administration des traitements, voie orale, par tubage oesophagien. • c/ - Après traitement : "t" à "t + 24 h" • c.1. Exploration urinaire : . […]

[3] = Potentiometric titration, protonation constants of the ligand ([…]); assay type: physicochemical; conditions: proton-malonate, aqueous solution, 37°C
Experimental: La méthode potentiométrique associée aux techniques informatiques a été utilisée pour cette étude. Les constantes de protonation du ligand, utilisées par la suite comme références, ont été calculées au moyen d'un programme informatique ([…]) à partir de données expérimentales provenant de titrages réalisés en solution aqueuse à 37°C et sous atmosphère d'azote.
(§1) A partir des données expérimentales des titrages, le programme […] calcule les constantes par la méthode des moindres carrés. Parmi les différentes combinaisons de complexes possibles, seules sont retenues celles pour lesquelles les critères numériques (notamment la somme des carrés des résidus) sont convenables. Le meilleur ensemble est finalement choisi d'après le tracé des courbes de formation simulées au moyen d'un troisième programme informatique (PSEUDOPLOT) : c'est celui qui permet d'obtenir la meilleure coïncidence entre courbes expérimentale (figure 2) et simulée (figure 3).

[4] = Potentiometric titration, formation constants of calcium-ligand complexes; assay type: physicochemical; conditions: calcium-malonate, complexe ML (charge 0); 37°C
Text: Trois cas possibles a priori ont été effectivement rencontrés : • i) si aucune complexation n'est constatée dans les conditions expérimentales précisées plus haut, c'est à dire si le degré de complexation reste nul sur tout le domaine de concentrations en ligand examiné, aucune espèce complexe indépendante ne peut exister dans le fluide gastro-intestinal. Ceci ne signifie pas que les ligands envisagés ne puissent pas coordonner le magnésium à des concentrations beaucoup plus élevées, mais cette possibilité se rapportant à des conditions extra-physiologiques ne présente pas d'intérêt dans le cadre de l'invention. • ii) si l'ensemble de complexes sélectionné d'après les critères ci-dessus n'est constitué que d'espèces ionisées, il est impossible à ces dernières de se dissoudre dans la membrane phospholipidique; les ligands correspondants ne peuvent donc être utilisés comme vecteurs pour l'absorption gastro-intestinale du magnésium. • iii) si l'ensemble retenu contient une ou plusieurs espèces neutres, les ligands correspondants peuvent être a priori des vecteurs efficaces pour l'absorption du magnésium par les membranes séparant le biofluide d'un biofluide voisin. Leur efficacité dépendra toutefois de la proportion de ces espèces neutres dans les conditions thérapeutiques. […]

[5] = Potentiometric titration, formation constants of magnesium-ligand complexes ([…], ZAPAPLOT, PSEUDOPLOT); assay type: physicochemical; conditions: magnésium-malonate, 37°C
Text: La complexation dans chaque système magnésium-ligand a ensuite été étudiée à partir de plusieurs titrages en solution aqueuse du ligand en présence de magnésium, pour différents rapports de concentrations métal-ligand correspondant à l'éventail le plus large possible de conditions thérapeutiques. Ces dosages se traduisent graphiquement par le tracé des courbes de protonation s = f ( -log[H] ), où s est le nombre moyen de protons liés au ligand. Ce type de courbes permet de visualiser la complexation. Par exemple, sur la figure 1, relative au système magnésium-malonate, on a représenté la courbe de protonation de référence du ligand par un trait plein et matérialisé les points expérimentaux des titrages du ligand en présence de magnésium par les symboles +, x, , □, ◁ dans l'ordre des rapports de concentrations métal/ligand croissants. On remarque deux zones de pH différentes : - l'une, de pH 2 à 3, pour laquelle les points se superposent à la courbe de protonation de référence, ce qui dénote une absence totale de complexation, - l'autre, de pH 3 à 7, pour laquelle les points sont décalés vers la gauche par rapport à la protonation de référence, c'est-à-dire vers des pH plus acides. Il y a donc une libération d'ions H+ en solution due à la complexation des ions Mg2+ par le malonate.
Cette complexation est confirmée par le tracé de la courbe de formation expérimentale p = f ( -log [L] ) au moyen d'un autre programme (ZAPAPLOT) où p est le nombre moyen de ligands liés au métal (représenté par le degré de formation DF à la figure 2). L'allure de cette courbe donne une idée de la forme sous laquelle le ligand intervient dans les complexes formés et permet d'estimer la valeur de leurs constantes de formation.
as §1

[6] = coefficient d'utilisation digestive

| Compound | C. abs. ([1]; coefficient d'absorption) | C.u.d. [1, 6] | C.r. ([1]; coefficient de rétention) | MgF/24 h ([1]; faecal magnesium, oral 38,88 mg de Mg2+/kg) | MgU/24 h ([1]; urinary magnesium, oral 38,88 mg de Mg2+/kg) | C. abs. ([2]; coefficient d'absorption) | C.u.d. [2, 6] | C.r. ([2]; coefficient de rétention) | log β ([3]; complexe LH2) | log β ([3]; complexe LH) | log β [4] | log β ([5]; complexe ML3) | log β ([5]; complexe ML (charge 0)) | log β ([5]; complexe MLH-1) | log β ([5]; complexe MLH) |
| --- | --- | --- | --- | --- | --- | --- | --- | --- | --- | --- | --- | --- | --- | --- | --- |
| [Cl-].[Cl-].[Mg+2] [Lot II, MgCl2] | 30,19 | 66,89 | 43,78 | 2,003 mg/100 g de rat | 1,873 mg/100 g de rat | 38,948 | 73,617 | 50,083 | – | – | – | – | – | – | – |
| O=C(O)CC(=O)O [MLO, malonate] | – | – | – | – | – | – | – | – | 7,815 | 5,235 | 1,511 | 5,266 | 2,064 | 6,326 | 5,524 |
